Key:
Conditions in all cases: Compound concentration 10 µM
[1] = target: T1, Alpha-2B adrenergic receptor (Homo sapiens) (UniProt P18089)
T1 sequence (whole entry): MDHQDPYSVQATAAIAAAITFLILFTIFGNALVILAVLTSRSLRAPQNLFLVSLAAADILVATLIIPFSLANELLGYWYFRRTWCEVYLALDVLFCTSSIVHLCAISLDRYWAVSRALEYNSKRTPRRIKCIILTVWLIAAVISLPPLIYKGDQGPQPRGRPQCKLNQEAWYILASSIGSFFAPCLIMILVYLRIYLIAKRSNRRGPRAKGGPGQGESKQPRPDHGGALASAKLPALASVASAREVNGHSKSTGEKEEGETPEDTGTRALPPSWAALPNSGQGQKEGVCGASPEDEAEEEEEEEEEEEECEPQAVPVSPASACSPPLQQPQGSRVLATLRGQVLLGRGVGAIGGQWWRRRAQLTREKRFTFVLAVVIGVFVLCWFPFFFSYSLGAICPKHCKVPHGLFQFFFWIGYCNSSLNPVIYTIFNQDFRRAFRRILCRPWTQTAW

[2] = target: T2, Alpha-2C adrenergic receptor (Homo sapiens) (UniProt P18825)
T2 sequence (whole entry): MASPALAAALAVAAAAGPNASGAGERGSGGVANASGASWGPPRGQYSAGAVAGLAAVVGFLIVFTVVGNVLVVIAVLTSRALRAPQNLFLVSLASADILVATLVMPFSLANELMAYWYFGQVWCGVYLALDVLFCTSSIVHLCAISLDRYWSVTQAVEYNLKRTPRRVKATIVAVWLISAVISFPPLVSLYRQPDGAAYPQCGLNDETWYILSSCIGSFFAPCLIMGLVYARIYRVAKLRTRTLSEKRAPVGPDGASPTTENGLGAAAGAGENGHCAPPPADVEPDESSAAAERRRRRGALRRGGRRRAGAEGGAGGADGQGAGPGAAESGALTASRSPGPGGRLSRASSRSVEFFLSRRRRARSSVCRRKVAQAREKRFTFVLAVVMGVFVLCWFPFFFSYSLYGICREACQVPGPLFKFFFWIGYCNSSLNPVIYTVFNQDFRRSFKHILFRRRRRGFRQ

[3] = target: T3, Muscarinic acetylcholine receptor M4 (Homo sapiens) (UniProt P08173)
T3 sequence (whole entry): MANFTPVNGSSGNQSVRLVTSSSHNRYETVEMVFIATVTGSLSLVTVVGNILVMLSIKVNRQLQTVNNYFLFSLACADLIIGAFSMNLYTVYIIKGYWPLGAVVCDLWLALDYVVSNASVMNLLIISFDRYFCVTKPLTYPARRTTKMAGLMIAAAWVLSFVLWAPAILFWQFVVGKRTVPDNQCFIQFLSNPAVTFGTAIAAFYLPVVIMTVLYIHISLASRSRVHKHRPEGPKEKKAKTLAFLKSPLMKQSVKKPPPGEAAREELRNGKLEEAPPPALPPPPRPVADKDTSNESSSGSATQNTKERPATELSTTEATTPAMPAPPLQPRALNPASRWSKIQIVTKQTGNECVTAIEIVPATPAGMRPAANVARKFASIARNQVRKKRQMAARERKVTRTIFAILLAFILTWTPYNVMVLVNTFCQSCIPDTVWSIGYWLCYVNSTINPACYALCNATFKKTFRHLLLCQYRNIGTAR

[4] = target: D(2) dopamine receptor (Homo sapiens) (UniProt P14416)
[5] = target: T4, D(4) dopamine receptor (Homo sapiens) (UniProt P21917)
T4 sequence (whole entry): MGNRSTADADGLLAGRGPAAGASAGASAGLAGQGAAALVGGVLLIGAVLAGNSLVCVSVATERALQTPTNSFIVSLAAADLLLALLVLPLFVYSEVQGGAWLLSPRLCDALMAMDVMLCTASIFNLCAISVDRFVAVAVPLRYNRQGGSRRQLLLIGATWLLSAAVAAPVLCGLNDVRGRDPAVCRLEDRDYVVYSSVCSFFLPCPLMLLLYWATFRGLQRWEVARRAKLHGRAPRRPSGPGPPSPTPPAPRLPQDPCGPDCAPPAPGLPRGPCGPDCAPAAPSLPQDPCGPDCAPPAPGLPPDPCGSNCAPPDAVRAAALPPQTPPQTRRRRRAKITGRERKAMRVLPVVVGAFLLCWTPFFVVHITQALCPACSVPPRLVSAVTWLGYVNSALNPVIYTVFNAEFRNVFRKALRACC

[6] = target: Histamine H3 receptor (Homo sapiens) (UniProt Q9Y5N1)
[7] = target: Histamine H4 receptor (Homo sapiens) (UniProt Q9H3N8)
[8] = target: 5-hydroxytryptamine receptor 1B (Homo sapiens) (UniProt P28222)
[9] = target: Sodium-dependent noradrenaline transporter (Homo sapiens) (UniProt P23975)
[10] = target: Sodium-dependent dopamine transporter (Homo sapiens) (UniProt Q01959)
[11] = target: T5, 5-hydroxytryptamine receptor 2C (Homo sapiens) (UniProt P28335)
T5 sequence (whole entry): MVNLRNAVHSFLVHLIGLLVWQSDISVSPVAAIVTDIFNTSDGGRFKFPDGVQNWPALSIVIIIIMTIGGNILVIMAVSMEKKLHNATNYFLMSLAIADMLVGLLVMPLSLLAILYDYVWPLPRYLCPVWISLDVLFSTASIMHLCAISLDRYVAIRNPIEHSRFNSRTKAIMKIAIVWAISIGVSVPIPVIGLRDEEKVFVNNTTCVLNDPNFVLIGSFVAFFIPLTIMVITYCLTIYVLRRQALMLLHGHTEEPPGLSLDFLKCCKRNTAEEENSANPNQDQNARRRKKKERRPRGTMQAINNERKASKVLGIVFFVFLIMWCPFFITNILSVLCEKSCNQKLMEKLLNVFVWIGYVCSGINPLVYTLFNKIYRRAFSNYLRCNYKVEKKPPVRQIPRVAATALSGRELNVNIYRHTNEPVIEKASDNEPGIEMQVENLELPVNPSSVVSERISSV

[12] = target: Sigma non-opioid intracellular receptor 1 (Homo sapiens) (UniProt Q99720)
[13] = target: Sodium-dependent serotonin transporter (Homo sapiens) (UniProt P31645)
[14] = target: 5-hydroxytryptamine receptor 7 (Homo sapiens) (UniProt P34969)
Sequence of 5-hydroxytryptamine receptor 7 (Homo sapiens) (P34969 whole entry): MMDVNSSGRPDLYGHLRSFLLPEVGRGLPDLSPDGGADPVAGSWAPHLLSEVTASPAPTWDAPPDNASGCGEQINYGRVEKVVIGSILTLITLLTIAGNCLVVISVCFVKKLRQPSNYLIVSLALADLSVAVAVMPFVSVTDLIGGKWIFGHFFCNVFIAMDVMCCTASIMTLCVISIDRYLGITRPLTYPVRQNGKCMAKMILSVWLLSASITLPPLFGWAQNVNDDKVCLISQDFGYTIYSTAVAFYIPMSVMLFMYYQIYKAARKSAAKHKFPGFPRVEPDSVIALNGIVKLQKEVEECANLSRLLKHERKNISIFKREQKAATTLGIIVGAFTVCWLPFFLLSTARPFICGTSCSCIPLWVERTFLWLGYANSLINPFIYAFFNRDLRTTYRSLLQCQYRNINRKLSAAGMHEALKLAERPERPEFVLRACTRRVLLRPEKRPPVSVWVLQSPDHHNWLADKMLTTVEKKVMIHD

Sequence of D(2) dopamine receptor (Homo sapiens) (P14416 whole entry): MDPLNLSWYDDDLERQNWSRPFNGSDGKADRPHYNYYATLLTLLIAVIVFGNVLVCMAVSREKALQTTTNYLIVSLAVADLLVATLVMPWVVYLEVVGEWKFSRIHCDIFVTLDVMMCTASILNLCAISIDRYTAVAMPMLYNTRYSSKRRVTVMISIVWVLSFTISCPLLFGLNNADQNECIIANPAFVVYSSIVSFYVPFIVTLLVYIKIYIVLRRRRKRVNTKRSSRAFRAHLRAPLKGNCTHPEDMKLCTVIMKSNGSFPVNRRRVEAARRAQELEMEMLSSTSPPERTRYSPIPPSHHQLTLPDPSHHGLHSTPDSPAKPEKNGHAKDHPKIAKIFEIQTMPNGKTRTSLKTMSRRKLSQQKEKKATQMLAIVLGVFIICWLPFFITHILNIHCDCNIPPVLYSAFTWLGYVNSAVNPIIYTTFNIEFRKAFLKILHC
Sequence of 5-hydroxytryptamine receptor 1B (Homo sapiens) (P28222 whole entry): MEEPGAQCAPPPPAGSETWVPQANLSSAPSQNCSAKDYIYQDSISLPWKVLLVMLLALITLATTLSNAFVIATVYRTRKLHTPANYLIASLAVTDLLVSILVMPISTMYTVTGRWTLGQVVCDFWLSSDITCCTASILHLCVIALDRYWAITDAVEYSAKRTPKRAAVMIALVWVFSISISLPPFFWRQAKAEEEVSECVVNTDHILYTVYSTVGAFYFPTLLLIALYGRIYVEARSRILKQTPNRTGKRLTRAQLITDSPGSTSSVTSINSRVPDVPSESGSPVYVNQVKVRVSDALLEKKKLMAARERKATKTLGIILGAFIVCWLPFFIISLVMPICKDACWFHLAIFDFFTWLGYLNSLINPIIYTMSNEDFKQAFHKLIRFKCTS
Sequence of Sigma non-opioid intracellular receptor 1 (Homo sapiens) (Q99720 whole entry): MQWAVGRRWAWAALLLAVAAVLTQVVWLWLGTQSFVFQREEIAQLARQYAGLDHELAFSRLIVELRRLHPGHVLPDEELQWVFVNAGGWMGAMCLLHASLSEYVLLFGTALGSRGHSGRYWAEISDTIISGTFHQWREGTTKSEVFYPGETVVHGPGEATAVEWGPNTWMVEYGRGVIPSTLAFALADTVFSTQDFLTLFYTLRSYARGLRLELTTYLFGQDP
Sequence of Sodium-dependent serotonin transporter (Homo sapiens) (P31645 whole entry, looked up): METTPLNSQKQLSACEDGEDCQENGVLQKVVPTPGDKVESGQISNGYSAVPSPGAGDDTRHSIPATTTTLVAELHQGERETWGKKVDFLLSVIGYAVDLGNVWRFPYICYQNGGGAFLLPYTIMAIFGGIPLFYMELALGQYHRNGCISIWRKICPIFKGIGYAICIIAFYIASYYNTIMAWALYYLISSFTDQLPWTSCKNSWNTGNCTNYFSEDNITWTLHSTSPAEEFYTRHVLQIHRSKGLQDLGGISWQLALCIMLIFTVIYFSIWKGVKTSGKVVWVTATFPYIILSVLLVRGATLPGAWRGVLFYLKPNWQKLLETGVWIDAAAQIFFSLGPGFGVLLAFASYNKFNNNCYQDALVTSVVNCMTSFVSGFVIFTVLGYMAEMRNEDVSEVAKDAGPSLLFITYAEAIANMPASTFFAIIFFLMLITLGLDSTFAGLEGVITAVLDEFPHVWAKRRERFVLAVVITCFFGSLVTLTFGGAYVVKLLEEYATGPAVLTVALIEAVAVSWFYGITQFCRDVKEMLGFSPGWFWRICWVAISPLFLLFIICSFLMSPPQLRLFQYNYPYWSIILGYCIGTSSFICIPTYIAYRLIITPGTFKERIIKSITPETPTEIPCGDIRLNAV
Sequence of Sodium-dependent noradrenaline transporter (Homo sapiens) (P23975 whole entry): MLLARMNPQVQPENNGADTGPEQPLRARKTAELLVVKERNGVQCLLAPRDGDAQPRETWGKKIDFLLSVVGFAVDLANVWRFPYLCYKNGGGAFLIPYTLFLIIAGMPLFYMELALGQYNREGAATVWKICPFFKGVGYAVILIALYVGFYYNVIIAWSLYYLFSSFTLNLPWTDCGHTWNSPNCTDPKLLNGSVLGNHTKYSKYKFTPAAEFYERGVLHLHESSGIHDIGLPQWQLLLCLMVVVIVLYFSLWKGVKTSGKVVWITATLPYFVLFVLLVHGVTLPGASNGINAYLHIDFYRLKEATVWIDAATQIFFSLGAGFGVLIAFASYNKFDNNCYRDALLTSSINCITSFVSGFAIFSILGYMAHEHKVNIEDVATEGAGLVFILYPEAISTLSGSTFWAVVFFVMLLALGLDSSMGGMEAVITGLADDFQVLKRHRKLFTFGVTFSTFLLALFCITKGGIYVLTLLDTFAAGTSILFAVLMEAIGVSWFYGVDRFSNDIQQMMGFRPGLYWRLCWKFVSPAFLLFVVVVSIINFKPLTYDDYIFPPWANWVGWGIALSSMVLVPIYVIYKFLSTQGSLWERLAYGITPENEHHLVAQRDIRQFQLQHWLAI
Sequence of Histamine H4 receptor (Homo sapiens) (Q9H3N8 whole entry): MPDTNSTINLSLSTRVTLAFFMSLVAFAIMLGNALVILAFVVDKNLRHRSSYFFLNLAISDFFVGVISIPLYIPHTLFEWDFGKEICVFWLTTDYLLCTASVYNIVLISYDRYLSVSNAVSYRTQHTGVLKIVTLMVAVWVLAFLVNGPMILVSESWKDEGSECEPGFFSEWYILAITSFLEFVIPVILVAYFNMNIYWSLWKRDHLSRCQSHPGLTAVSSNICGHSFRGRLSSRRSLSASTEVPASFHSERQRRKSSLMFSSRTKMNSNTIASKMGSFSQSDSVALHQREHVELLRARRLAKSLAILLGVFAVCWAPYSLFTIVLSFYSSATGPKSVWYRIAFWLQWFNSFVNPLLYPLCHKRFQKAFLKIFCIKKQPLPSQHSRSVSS
Sequence of Sodium-dependent dopamine transporter (Homo sapiens) (Q01959 whole entry): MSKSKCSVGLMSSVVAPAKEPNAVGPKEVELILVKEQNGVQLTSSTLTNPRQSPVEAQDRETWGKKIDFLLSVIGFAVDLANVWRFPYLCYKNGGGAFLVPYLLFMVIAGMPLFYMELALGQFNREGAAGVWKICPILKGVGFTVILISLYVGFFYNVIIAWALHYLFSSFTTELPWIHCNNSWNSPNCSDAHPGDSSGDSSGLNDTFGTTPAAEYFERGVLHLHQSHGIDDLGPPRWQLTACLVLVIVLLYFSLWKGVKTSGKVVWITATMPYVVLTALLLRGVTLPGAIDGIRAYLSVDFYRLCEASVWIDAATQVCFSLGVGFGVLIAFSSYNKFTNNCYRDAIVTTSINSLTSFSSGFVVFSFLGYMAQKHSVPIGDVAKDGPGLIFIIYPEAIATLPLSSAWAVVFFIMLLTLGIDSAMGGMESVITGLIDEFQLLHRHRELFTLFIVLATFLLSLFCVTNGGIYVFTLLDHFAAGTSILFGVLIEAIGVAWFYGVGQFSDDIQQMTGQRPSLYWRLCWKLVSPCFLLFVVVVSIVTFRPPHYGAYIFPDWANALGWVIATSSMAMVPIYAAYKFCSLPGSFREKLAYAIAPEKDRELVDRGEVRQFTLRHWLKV
Sequence of Histamine H3 receptor (Homo sapiens) (Q9Y5N1 whole entry): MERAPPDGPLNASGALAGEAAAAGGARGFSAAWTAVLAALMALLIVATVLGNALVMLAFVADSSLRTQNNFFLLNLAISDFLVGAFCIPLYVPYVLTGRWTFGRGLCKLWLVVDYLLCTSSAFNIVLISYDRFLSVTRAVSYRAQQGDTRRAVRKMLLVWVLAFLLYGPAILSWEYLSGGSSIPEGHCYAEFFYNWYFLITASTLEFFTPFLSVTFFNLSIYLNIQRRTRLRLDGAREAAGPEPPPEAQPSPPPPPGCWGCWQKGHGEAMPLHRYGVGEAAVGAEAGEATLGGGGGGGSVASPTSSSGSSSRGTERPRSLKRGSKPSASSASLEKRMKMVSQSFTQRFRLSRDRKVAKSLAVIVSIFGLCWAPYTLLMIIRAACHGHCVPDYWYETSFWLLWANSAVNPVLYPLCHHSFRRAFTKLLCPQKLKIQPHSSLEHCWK

Row | Compound | inhibition [1] | inhibition [2] | inhibition [3] | inhibition [4] | inhibition [5] | inhibition [6] | inhibition [7] | inhibition [8] | inhibition [9] | inhibition [10] | inhibition [11] | inhibition [12] | inhibition [13] | inhibition [14]
1 | CCN(CC)CCCCC1CCN(CC(=O)N2c3ccccc3C(=O)Nc3cccnc32)CC1 | -3.71% | -6.76% | 95.5% | 2.83% | -8.29% | 43% | 21.4% | 14.9% | 15.3% | 28.1% | – | – | – | –
2 | Oc1ccc2c3c1O[C@H]1c4[nH]c5c(c4C[C@@]4(O)[C@@H](C2)N(CC2CC2)CC[C@]314)C[C@@]1(O)[C@H]2Cc3ccc(O)c4c3[C@@]1(CCN2CC1CC1)[C@H]5O4 | 8.68% | 15.5% | -2.79% | 1.13% | 14.9% | 6.5% | 1.48% | 13.6% | 12.7% | -4.44% | 10.5% | 9.49% | -6.45% | –
3 | CC(C)NCC(O)COc1ccc(CCOCC2CC2)cc1 (centres undefined) | 24.5% | 2.92% | 22.5% | 3.26% | – | 28.3% | – | 10.4% | 45.1% | 27.9% | – | 91.7% | -2.29% | –
4 | CC(C)NCC(O)COc1cccc2ccccc12 (centres undefined) | – | 8.7% | -3.37% | 17.7% | 13.2% | 5.07% | 10.8% | 9.59% | 46.2% | 38.4% | 68% | 54.7% | – | 13.3%
5 | C[C@@H](N)Cc1c[nH]cn1 | 9.47% | 10.9% | – | -4.88% | – | 103% | 95.7% | 5.1% | -7.81% | 3.36% | 5.48% | 20.9% | 6.49% | 3.45%
6 | C=CCN1C[C@H](C)N([C@H](c2ccc(C(=O)N(CC)CC)cc2)c2cccc(O)c2)C[C@H]1C | 9.01% | 25.4% | -5.52% | -2.85% | – | 0.95% | -9.85% | 27.1% | 13% | 26.9% | 0.93% | 87.3% | 13.7% | –
7 | CCCn1c(=O)c2[nH]c(-c3cnn(Cc4cccc(C(F)(F)F)c4)c3)nc2n(CC)c1=O | 11% | -0.44% | – | 32.5% | 0.57% | 3.01% | – | 13.9% | 25.1% | 45.8% | – | 43.2% | – | –
8 | COc1cc2c(CCNC(C)=O)c[nH]c2cc1Cl | 9.08% | -1.89% | – | -7.31% | -6.09% | – | 2.03% | 25.2% | – | 14.1% | 18.8% | 5.27% | – | -0.31%
9 | CCCCc1nc(Cl)c(CO)n1Cc1ccc(-c2ccccc2-c2nnn[nH]2)cc1 | – | 3.84% | -5.3% | 23.9% | 37% | 31.4% | 7.13% | -3.17% | 11.8% | – | 55% | 9.91% | – | 40%
10 | CC(C)(C)NC[C@H](O)COc1nsnc1N1CCOCC1 | – | 1.66% | -8.25% | 6.14% | 15.6% | 10.1% | 3.02% | 17.9% | – | 31.4% | -1.62% | 90.3% | – | –
11 | N=C(N)SCCc1c[nH]cn1 | 17.9% | 20.8% | – | -5.28% | 6.59% | 98.6% | 111% | 8.52% | 11.5% | -0.41% | -2.06% | 13.1% | – | 19.2%
12 | COc1cccc([C@H](O)C2CCN(CCc3ccc(F)cc3)CC2)c1OC | 71.7% | 26.7% | – | 4.57% | 43.9% | 3.17% | 3.4% | 27.7% | 45.2% | 15.6% | – | 3.05% | 27.2% | 34.5%
13 | Nc1nc(NCCc2ccc(O)cc2)nc2nc(-c3ccco3)nn12 | -1.01% | 9.88% | – | 40% | 4.31% | – | – | 27% | 44.1% | 23.6% | 8.15% | 43.4% | -5.81% | 13.5%
14 | CN(C)C(=O)C(CCN1CCC(O)(c2ccc(Cl)cc2)CC1)(c1ccccc1)c1ccccc1 | – | 39.4% | -6.62% | 16.2% | 54.2% | 10.4% | 7.53% | 20.1% | 25.8% | 64.3% | 0.09% | 87.2% | – | 20.8%
15 | Cc1cccc(NC(=O)N[C@@H]2N=C(c3ccccc3)c3ccccc3N(C)C2=O)c1 | 7.07% | 12.3% | -5.23% | 14.2% | 14.6% | -5.59% | 18.3% | 16.2% | 1.83% | 44.1% | -0.72% | 20.8% | – | 3.26%

Reference: ChEMBL document CHEMBL5442219
